Experimental data taken from article PMC9516332 (Frontiers in Oncology, 2022).
Where two headings read alike, the source gives them in different places.

Legend:
Test in all cases: Kinase panel profiling at 1 µmol/L (MSA or IMAP), percentage inhibition
Type in all cases: biochemical
[1] = biological target: T1, panel of 255 wild-type kinases (Homo sapiens, UniProt O14965)
T1 sequence (O14965 1-403): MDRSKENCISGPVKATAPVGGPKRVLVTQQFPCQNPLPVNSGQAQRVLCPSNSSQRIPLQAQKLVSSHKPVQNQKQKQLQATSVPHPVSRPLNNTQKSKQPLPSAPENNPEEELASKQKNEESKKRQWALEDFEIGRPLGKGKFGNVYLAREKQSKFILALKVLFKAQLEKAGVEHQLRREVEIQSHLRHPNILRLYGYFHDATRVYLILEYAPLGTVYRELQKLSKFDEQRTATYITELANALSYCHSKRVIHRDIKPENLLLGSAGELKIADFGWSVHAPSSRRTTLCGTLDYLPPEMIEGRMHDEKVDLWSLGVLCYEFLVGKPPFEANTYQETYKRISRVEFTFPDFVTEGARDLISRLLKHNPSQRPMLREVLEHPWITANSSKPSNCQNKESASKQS

[2] = biological target: T2, panel of 255 wild-type kinases (Homo sapiens, UniProt O60285); details: read-out: %-inhibition, NuaK1
T2 sequence (O60285 1-661): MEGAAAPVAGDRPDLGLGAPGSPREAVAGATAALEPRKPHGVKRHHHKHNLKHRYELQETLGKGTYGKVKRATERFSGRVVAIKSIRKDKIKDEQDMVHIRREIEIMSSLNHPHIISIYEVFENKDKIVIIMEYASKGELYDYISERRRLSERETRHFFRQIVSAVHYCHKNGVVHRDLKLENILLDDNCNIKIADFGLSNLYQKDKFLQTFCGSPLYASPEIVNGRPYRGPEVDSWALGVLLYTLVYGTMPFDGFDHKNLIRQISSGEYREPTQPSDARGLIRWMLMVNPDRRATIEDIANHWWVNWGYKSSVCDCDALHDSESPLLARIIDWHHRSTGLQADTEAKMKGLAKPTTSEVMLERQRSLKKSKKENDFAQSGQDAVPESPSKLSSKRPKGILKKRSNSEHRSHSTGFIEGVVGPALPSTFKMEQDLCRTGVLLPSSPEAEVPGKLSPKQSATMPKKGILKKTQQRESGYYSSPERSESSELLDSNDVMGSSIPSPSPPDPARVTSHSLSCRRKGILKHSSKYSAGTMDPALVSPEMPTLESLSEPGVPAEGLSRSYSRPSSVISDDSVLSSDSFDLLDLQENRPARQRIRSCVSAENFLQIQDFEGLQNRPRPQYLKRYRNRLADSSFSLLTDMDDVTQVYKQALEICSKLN

[3] = biological target: panel of 255 wild-type kinases (Homo sapiens, UniProt P00533); details: read-out: %-inhibition at 1 µmol/L, EGFR
[4] = biological target: panel of 255 wild-type kinases (Homo sapiens, UniProt P08631); details: read-out: %-inhibition at 1 µmol/L, HCK
[5] = biological target: panel of 255 wild-type kinases (Homo sapiens, UniProt P11362); details: read-out: %-inhibition at 1 µmol/L, FGFR1
[6] = biological target: panel of 255 wild-type kinases (Homo sapiens, UniProt P22607); details: read-out: %-inhibition at 1 µmol/L, FGFR3
[7] = biological target: panel of 255 wild-type kinases (Homo sapiens, UniProt P23443); details: read-out: %-inhibition, p70S6K
[8] = biological target: panel of 255 wild-type kinases (Homo sapiens, UniProt P53350); details: read-out: %-inhibition at 1 µmol/L, PLK1
[9] = biological target: panel of 255 wild-type kinases (Homo sapiens, UniProt P53355); details: read-out: %-inhibition at 1 µmol/L, DAPK1
[10] = biological target: panel of 255 wild-type kinases (Homo sapiens, UniProt P53779); details: read-out: %-inhibition at 1 µmol/L, JNK3
[11] = biological target: panel of 255 wild-type kinases (Homo sapiens, UniProt Q15418); details: read-out: %-inhibition at 1 µmol/L, RSK1
[12] = biological target: panel of 255 wild-type kinases (Homo sapiens, UniProt Q16512); details: read-out: %-inhibition at 1 µmol/L, PKN1
[13] = biological target: panel of 255 wild-type kinases (Homo sapiens, UniProt Q16654); details: read-out: %-inhibition at 1 µmol/L, PDHK4
[14] = biological target: panel of 255 wild-type kinases (Homo sapiens, UniProt Q9Y3S1); details: read-out: %-inhibition at 1 µmol/L, WNK2
[15] = AurA kinase assay, 1 µmol/L single concentration, read-out: %-inhibition AurA
[16] = AurA/TPX2 kinase assay, 1 µmol/L single concentration, read-out: %-inhibition AurA/TPX2
[17] = NuaK1, 1 µmol/L single concentration
[18] = kinase EGFR, 1 µmol/L single concentration
[19] = kinase HCK, 1 µmol/L single concentration
[20] = kinase FGFR1, 1 µmol/L single concentration
[21] = kinase FGFR3, 1 µmol/L single concentration
[22] = p70S6K, 1 µmol/L single concentration
[23] = kinase PLK1, 1 µmol/L single concentration
[24] = kinase DAPK1, 1 µmol/L single concentration
[25] = kinase JNK3, 1 µmol/L single concentration
[26] = kinase RSK1, 1 µmol/L single concentration
[27] = kinase PKN1, 1 µmol/L single concentration
[28] = kinase PDHK4, 1 µmol/L single concentration
[29] = kinase WNK2, 1 µmol/L single concentration

Row | Structure (SMILES) | inhibition at 1 µM [1, 15] [%] | inhibition at 1 µM [1, 16] [%] | inhibition at 1 µM [2, 17] [%] | inhibition at 1 µM [3, 18] [%] | inhibition at 1 µM [4, 19] [%] | inhibition at 1 µM [5, 20] [%] | inhibition at 1 µM [6, 21] [%] | inhibition at 1 µM [7, 22] [%] | inhibition at 1 µM [8, 23] [%] | inhibition at 1 µM [9, 24] [%] | inhibition at 1 µM [10, 25] [%] | inhibition at 1 µM [11, 26] [%] | inhibition at 1 µM [12, 27] [%] | inhibition at 1 µM [13, 28] [%] | inhibition at 1 µM [14, 29] [%] | also measured
1 | Cc1nc(NC(=O)N2CCC[C@H]2C(N)=O)sc1-c1ccnc(C(C)(C)C(F)(F)F)c1 [alpelisib] | -0.801 | -0.57 | 9 | 2 | 4.56 | 4.29 | 3.39 | 9 | 0.0286 | -3 | -12 | -0.527 | 8 | 0.0757 | -3.36 | 
2 | Cn1cc(-c2cc3c(N4CCN(c5ncc([C@@](C)(N)c6ccc(F)cc6)cn5)CC4)ncnn3c2)cn1 [avapritinib] | 4.62 | 10 | 85 | 25 | 52 | 41 | 41 | 20 | -1.53 | 0.0958 | 2.14 | -7 | 19 | 5.61 | 0.928 | 
3 | Cn1cnc2c(F)c(Nc3ccc(Br)cc3F)c(C(=O)NOCCO)cc21 [binimetinib] | -3 | -4 | -4.32 | 9 | -8 | 2 | 1.4 | 4.72 | 0.406 | 1.69 | 7 | -5.55 | 6 | -0.429 | -2.48 | 
4 | CNC(=O)c1ccc(-c2cnc3ncc(Cc4ccc5ncccc5c4)n3n2)cc1F [capmatinib] |  |  |  |  |  |  |  |  |  |  |  |  |  |  |  | inhibition at 1 µM ([1]; read-out: %-inhibition AurA): 3.78%; inhibition at 1 µM ([1]; read-out: %-inhibition AurA/TPX2): -6%; inhibition at 1 µM [2]: -1.53%; inhibition at 1 µM [3]: 17%; inhibition at 1 µM [4]: -1.63%; inhibition at 1 µM [5]: -0.662%; inhibition at 1 µM [6]: 2%; inhibition at 1 µM [7]: 5.68%; inhibition at 1 µM [8]: -5%; inhibition at 1 µM [9]: -2.82%; inhibition at 1 µM [10]: 5%; inhibition at 1 µM [11]: 1.52%; inhibition at 1 µM [12]: 16%; inhibition at 1 µM [13]: 0.789%; inhibition at 1 µM [14]: -2.3%
5 | COc1cc2ncnc(Nc3ccc(F)c(Cl)c3)c2cc1NC(=O)/C=C/CN1CCCCC1 [dacomitinib] | -1.72 | 1 | 11 | 103 | 57 | 8 | 26 | 33 | 3.78 | -7 | 0.338 | 4.37 | 16 | 3 | -4 | 
6 | CN1CCN(c2ccc(C(=O)Nc3n[nH]c4ccc(Cc5cc(F)cc(F)c5)cc34)c(NC3CCOCC3)c2)CC1 [entrectinib] | 81 | 75 | 102 |  | 91 | 90 | 90 | 25 | 0.212 | 16 | -1.69 |  | 64 | 3.42 | 2.24 | 
7 | CCN1CCN(c2ccc(Nc3cc(N(C)C(=O)Nc4c(Cl)c(OC)cc(OC)c4Cl)ncn3)cc2)CC1 [infigratinib] | -5.38 | -10 | 8 |  | 22 | 100 | 102 | 5.33 | 0.613 | -3 | 4 | -3 | 13 | -1.46 | 1 | 
8 | CCN1C(=O)N(c2c(F)c(OC)cc(OC)c2F)Cc2cnc3[nH]c(CN4CCOCC4)cc3c21 [pemigatinib] | 11 | -4.43 | -2.15 | -2 | 31 |  | 100 | -0.418 | -1.52 | -4.25 | -7 | -1.79 | 10 | -4 | -1.88 | 
9 | FC(F)(F)c1ccc(CNc2ccc(Cc3c[nH]c4ncc(Cl)cc34)cn2)cn1 [pexidartinib] | 44 | 21 | 8 |  | 3 | 45 | 68 | 31 | 6.33 | -9 | 0.454 | 7.43 | -4.55 | 4.63 | -1.8 | 
10 | C=CC(=O)N1CCC([C@@H]2CCNc3c(C(N)=O)c(-c4ccc(Oc5ccccc5)cc4)nn32)CC1 [zanubrutinib] | -1.42 | -0.885 | -7 | 92 |  | 4.53 | 4.61 | -3.21 | -0.741 | -2 | -8 | -2.79 | -11 | 0.136 | 2 | 
